Data published in the supplement of paper PMC10307832.

Tests used:
Test in all cases: relative viability (nuclei count vs DMSO), 5 days (fraction); higher = more cells survive
Selumetinib + Lapatinib = compound: Cn1cnc2c(F)c(Nc3ccc(Br)cc3Cl)c(C(=O)NOCCO)cc21 [Selumetinib] + CS(=O)(=O)CCNCc1ccc(-c2ccc3ncnc(Nc4ccc(OCc5cccc(F)c5)c(Cl)c4)c3c2)o1 [Lapatinib] (partner 2 µM)
Summary of the method: (§1)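 The day after seeding in 1536-well plates, lung cancer cell lines were treated by pin tool with a single drug, or with a fixed anchor-drug dose together with five library-drug doses (not always all listed) in √10 steps. After 5 days, a combined fix-and-stain solution (final 0.05% Triton X-100, 1% formaldehyde, 1 ug/ml Hoechst) was added. Nuclei counted on 4× images gave relative viability as treated counts over vehicle counts, reported as the median of duplicate plates.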

Venetoclax + Phenformin = compound: CC1(C)CCC(CN2CCN(c3ccc(C(=O)NS(=O)(=O)c4ccc(NCC5CCOCC5)c([N+](=O)[O-])c4)c(Oc4cnc5[nH]ccc5c4)c3)CC2)=C(c2ccc(Cl)cc2)C1 [Venetoclax] + N=C(N)NC(=N)NCCc1ccccc1 [Phenformin] (partner 250 µM)
Summary of the method: as §1

Venetoclax + Vorinostat = compound: CC1(C)CCC(CN2CCN(c3ccc(C(=O)NS(=O)(=O)c4ccc(NCC5CCOCC5)c([N+](=O)[O-])c4)c(Oc4cnc5[nH]ccc5c4)c3)CC2)=C(c2ccc(Cl)cc2)C1 [Venetoclax] + O=C(CCCCCCC(=O)Nc1ccccc1)NO [Vorinostat] (partner 1 µM)
Summary of the method: as §1

Selumetinib + Vorinostat = compound: Cn1cnc2c(F)c(Nc3ccc(Br)cc3Cl)c(C(=O)NOCCO)cc21 [Selumetinib] + O=C(CCCCCCC(=O)Nc1ccccc1)NO [Vorinostat] (partner 1 µM)
Summary of the method: as §1

Row | Cell Line | relative viability (Selumetinib + Lapatinib; first compound 0.02 µM) | relative viability (Selumetinib + Lapatinib; first compound 0.06325 µM) | relative viability (Selumetinib + Lapatinib; first compound 0.2 µM) | relative viability (Selumetinib + Lapatinib; first compound 0.6325 µM) | relative viability (Venetoclax + Phenformin; first compound 0.01 µM) | relative viability (Venetoclax + Phenformin; first compound 0.03162 µM) | relative viability (Venetoclax + Phenformin; first compound 0.1 µM) | relative viability (Venetoclax + Phenformin; first compound 0.3162 µM) | relative viability (Venetoclax + Phenformin; first compound 1 µM) | relative viability (Venetoclax + Vorinostat; first compound 0.01 µM) | relative viability (Venetoclax + Vorinostat; first compound 0.03162 µM) | relative viability (Venetoclax + Vorinostat; first compound 0.1 µM) | relative viability (Venetoclax + Vorinostat; first compound 0.3162 µM) | relative viability (Venetoclax + Vorinostat; first compound 1 µM) | relative viability (Selumetinib + Vorinostat; first compound 0.02 µM) | relative viability (Selumetinib + Vorinostat; first compound 0.06325 µM) | relative viability (Selumetinib + Vorinostat; first compound 0.2 µM) | relative viability (Selumetinib + Vorinostat; first compound 0.6325 µM)
1 | NCI-H1793 | 0.827 | 0.581 | 0.503 | 0.504 | 0.457 | 0.354 | 0.271 | 0.36 | 0.303 | 0.685 | 0.958 | 0.703 | 0.801 | 0.623 | 0.512 | 0.422 | 0.445 | 0.365
2 | NCI-H2087 | 0.86 | 0.87 | 0.56 | 0.441 | 0.461 | 0.471 | 0.387 | 0.407 | 0.461 | 0.606 | 0.824 | 0.881 | 0.799 | 0.953 | 0.582 | 0.258 | 0.514 | 0.445
3 | COR-L 105 | 0.309 | 0.3 | 0.337 | 0.366 | 0.583 | 0.462 | 0.462 | 0.493 | 0.458 | 0.789 | 0.763 | 0.866 | 0.899 | 0.818 | 0.779 | 0.829 | 0.598 | 0.47
4 | SW 1573 | 1.19 | 1.01 | 1.04 | 0.788 | 0.425 | 0.373 | 0.327 | 0.47 | 0.392 | 0.712 | 0.656 | 0.643 | 0.692 | 0.572 | 0.652 | 0.582 | 0.703 | 0.914
5 | NCI-H1792 | 0.881 | 0.79 | 0.683 | 0.629 | 0.263 | 0.258 | – | 0.254 | 0.246 | – | – | – | – | – | – | – | – | –
6 | ChaGo-K-1 | – | – | – | – | 0.539 | 0.489 | 0.429 | 0.49 | 0.453 | 0.879 | 0.759 | 0.546 | 0.694 | 0.737 | 0.762 | 0.684 | 0.708 | 0.674
7 | NCI-H522 | – | – | – | – | 0.647 | 0.735 | 0.561 | 0.613 | 0.637 | 1 | 0.849 | 0.96 | 0.839 | 0.896 | 0.855 | 0.846 | 0.851 | 0.921
8 | NCI-H1648 | – | – | – | – | – | – | – | – | – | – | 0.397 | 0.494 | 0.451 | 0.477 | – | 0.596 | 0.423 | 0.367
9 | NCI-H2342 | – | – | – | – | 0.763 | 0.531 | 0.601 | 0.568 | 0.563 | 0.667 | 0.823 | 0.739 | 0.683 | 0.802 | 0.784 | 0.746 | 0.737 | 0.812
10 | NCI-H1299 | 1.06 | 0.959 | 1.02 | 0.812 | – | – | – | – | – | – | – | – | – | – | – | – | – | –
11 | SW 900 | – | – | – | – | 0.385 | 0.702 | 0.528 | 0.706 | 0.623 | 0.485 | 0.663 | 0.545 | 0.617 | 0.486 | 0.423 | 0.399 | 0.409 | 0.588
12 | A549 | 0.84 | 0.731 | 0.749 | 0.5 | 0.141 | 0.147 | 0.129 | 0.164 | 0.129 | – | – | – | – | – | – | – | – | –
